Results as given in patent US6011037A, “Thiazole derivatives with phosphodiesterase-inhibiting action” (Byk Gulden Lomberg Chemische Fabrik GmbH, priority 1996, dated 2000).
Counter-ions that a name gives are not always drawn.

System: PDE IV
Assay: Inhibition of the PDE IV activity (method of Bauer and Schwabe, adapted to microtiter plates)
Type: biochemical

COc1ccc(-c2nc(-c3cccnc3)cs2)c2c1OC1(CCCC1)C2 [Compound 1, 3-[2-(2,3-Dihydro-7-methoxybenzofuran-2-spiro-1'-cyclopentan-4-yl)thiazol-4-yl]pyridine]
-log IC50: 7.75

COc1ccc(-c2nc(-c3ccncc3)cs2)c2c1OC1(CCCC1)C2 [Compound 2, 4-[2-(2,3-Dihydro-7-methoxybenzofuran-2-spiro-1'-cyclopentan-4-yl)thiazol-4-yl]pyridinehydrobromide]
-log IC50: 7.09
